System: Unknown protein yeast genes
Experiment: DNA chip mRNA expression in yeast, unknown protein yeast genes (Table 1)
Type: cell-based, Saccharomyces cerevisiae S288C
Method in brief: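 First, S288C yeast grown in YPD at 25° C. are dosed in log phase with one toxicant (growth-inhibiting, not lethal) for 2 h. Next, total RNA is extracted and poly(A) mRNA isolated and reverse-transcribed with Cy3/Cy5-dUTP. Finally, whole-genome chip fluorescence is read relative to unexposed cells.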

CN(C)C(=S)SSC(=S)N(C)C [(10), Tetramethylthiuram disulfide]
The level of expressed mRNA in the presence of chemical substance/The level of expressed mRNA in the absence of chemical substance (yeast gene YKL086W, incubated two hours with chemical substance): 20.5 | The level of expressed mRNA in the presence of chemical substance/The level of expressed mRNA in the absence of chemical substance (yeast gene YKL151C, incubated two hours with chemical substance): 3.5 | The level of expressed mRNA in the presence of chemical substance/The level of expressed mRNA in the absence of chemical substance (yeast gene YKL153W, incubated two hours with chemical substance): 1.4 | The level of expressed mRNA in the presence of chemical substance/The level of expressed mRNA in the absence of chemical substance (yeast gene YKL195W, incubated two hours with chemical substance): 2.1 | The level of expressed mRNA in the presence of chemical substance/The level of expressed mRNA in the absence of chemical substance (yeast gene YKR011C): 4.4 | The level of expressed mRNA in the presence of chemical substance/The level of expressed mRNA in the absence of chemical substance (yeast gene YKR091W, incubated two hours with chemical substance): 1.6 | The level of expressed mRNA in the presence of chemical substance/The level of expressed mRNA in the absence of chemical substance (yeast gene YLR054C, incubated two hours with chemical substance): 1.1 | The level of expressed mRNA in the presence of chemical substance/The level of expressed mRNA in the absence of chemical substance (yeast gene YLR149C, incubated two hours with chemical substance): 5.2 | The level of expressed mRNA in the presence of chemical substance/The level of expressed mRNA in the absence of chemical substance (yeast gene YLR152C, incubated two hours with chemical substance): 1.1 | The level of expressed mRNA in the presence of chemical substance/The level of expressed mRNA in the absence of chemical substance (yeast gene YLR194C, incubated two hours with chemical substance): 1.1 | The level of expressed mRNA in the presence of chemical substance/The level of expressed mRNA in the absence of chemical substance (yeast gene YLR324W, incubated two hours with chemical substance): 1.4 | The level of expressed mRNA in the presence of chemical substance/The level of expressed mRNA in the absence of chemical substance (yeast gene YLR350W, incubated two hours with chemical substance): 1.4 | The level of expressed mRNA in the presence of chemical substance/The level of expressed mRNA in the absence of chemical substance (yeast gene YLR387C, incubated two hours with chemical substance): 3.0 | The level of expressed mRNA in the presence of chemical substance/The level of expressed mRNA in the absence of chemical substance (yeast gene YLR460C): 31.6 | The level of expressed mRNA in the presence of chemical substance/The level of expressed mRNA in the absence of chemical substance (yeast gene YML117W, incubated two hours with chemical substance): 1.4 | The level of expressed mRNA in the presence of chemical substance/The level of expressed mRNA in the absence of chemical substance (yeast gene YMR009W, incubated two hours with chemical substance): 2.2 | The level of expressed mRNA in the presence of chemical substance/The level of expressed mRNA in the absence of chemical substance (yeast gene YMR067C, incubated two hours with chemical substance): 3.5 | The level of expressed mRNA in the presence of chemical substance/The level of expressed mRNA in the absence of chemical substance (yeast gene YMR090W): 6.1 | The level of expressed mRNA in the presence of chemical substance/The level of expressed mRNA in the absence of chemical substance (yeast gene YMR095C, incubated two hours with chemical substance): 1.4 | The level of expressed mRNA in the presence of chemical substance/The level of expressed mRNA in the absence of chemical substance (yeast gene YMR097C, incubated two hours with chemical substance): 2.1 | The level of expressed mRNA in the presence of chemical substance/The level of expressed mRNA in the absence of chemical substance (yeast gene YMR102C, incubated two hours with chemical substance): 2.6 | The level of expressed mRNA in the presence of chemical substance/The level of expressed mRNA in the absence of chemical substance (yeast gene YMR107W, incubated two hours with chemical substance): 17.1 | The level of expressed mRNA in the presence of chemical substance/The level of expressed mRNA in the absence of chemical substance (yeast gene YMR180C, incubated two hours with chemical substance): 2.2 | The level of expressed mRNA in the presence of chemical substance/The level of expressed mRNA in the absence of chemical substance (yeast gene YMR184W, incubated two hours with chemical substance): 0.9 | The level of expressed mRNA in the presence of chemical substance/The level of expressed mRNA in the absence of chemical substance (yeast gene YMR191W, incubated two hours with chemical substance): 3.5 | The level of expressed mRNA in the presence of chemical substance/The level of expressed mRNA in the absence of chemical substance (yeast gene YMR295C, incubated two hours with chemical substance): 0.8 | The level of expressed mRNA in the presence of chemical substance/The level of expressed mRNA in the absence of chemical substance (yeast gene YMR316W, incubated two hours with chemical substance): 3.0 | The level of expressed mRNA in the presence of chemical substance/The level of expressed mRNA in the absence of chemical substance (yeast gene YNL044W, incubated two hours with chemical substance): 0.8 | The level of expressed mRNA in the presence of chemical substance/The level of expressed mRNA in the absence of chemical substance (yeast gene YNL074C, incubated two hours with chemical substance): 2.0 | The level of expressed mRNA in the presence of chemical substance/The level of expressed mRNA in the absence of chemical substance (yeast gene YNL092W, incubated two hours with chemical substance): 1.5 | The level of expressed mRNA in the presence of chemical substance/The level of expressed mRNA in the absence of chemical substance (yeast gene YNL115C, incubated two hours with chemical substance): 1.9 | The level of expressed mRNA in the presence of chemical substance/The level of expressed mRNA in the absence of chemical substance (yeast gene YNL156C, incubated two hours with chemical substance): 1.9 | The level of expressed mRNA in the presence of chemical substance/The level of expressed mRNA in the absence of chemical substance (yeast gene YNL234W, incubated two hours with chemical substance): 3.3 | The level of expressed mRNA in the presence of chemical substance/The level of expressed mRNA in the absence of chemical substance (yeast gene YNL281W, incubated two hours with chemical substance): 1.6 | The level of expressed mRNA in the presence of chemical substance/The level of expressed mRNA in the absence of chemical substance (yeast gene YNL305C, incubated two hours with chemical substance): 2.1 | The level of expressed mRNA in the presence of chemical substance/The level of expressed mRNA in the absence of chemical substance (yeast gene YNR068C, incubated two hours with chemical substance): 14.4 | The level of expressed mRNA in the presence of chemical substance/The level of expressed mRNA in the absence of chemical substance (yeast gene YOL032W, incubated two hours with chemical substance): 3.0 | The level of expressed mRNA in the presence of chemical substance/The level of expressed mRNA in the absence of chemical substance (yeast gene YOL036W, incubated two hours with chemical substance): 2.8 | The level of expressed mRNA in the presence of chemical substance/The level of expressed mRNA in the absence of chemical substance (yeast gene YOL047C, incubated two hours with chemical substance): 2.3 | The level of expressed mRNA in the presence of chemical substance/The level of expressed mRNA in the absence of chemical substance (yeast gene YOL071W, incubated two hours with chemical substance): 2.3 | The level of expressed mRNA in the presence of chemical substance/The level of expressed mRNA in the absence of chemical substance (yeast gene YOL082W, incubated two hours with chemical substance): 2.0 | The level of expressed mRNA in the presence of chemical substance/The level of expressed mRNA in the absence of chemical substance (yeast gene YOL083W, incubated two hours with chemical substance): 2.3 | The level of expressed mRNA in the presence of chemical substance/The level of expressed mRNA in the absence of chemical substance (yeast gene YOL117W, incubated two hours with chemical substance): 4.1 | The level of expressed mRNA in the presence of chemical substance/The level of expressed mRNA in the absence of chemical substance (yeast gene YOL131W, incubated two hours with chemical substance): 8.1 | The level of expressed mRNA in the presence of chemical substance/The level of expressed mRNA in the absence of chemical substance (yeast gene YOL150C): 8.3 | The level of expressed mRNA in the presence of chemical substance/The level of expressed mRNA in the absence of chemical substance (yeast gene YOL162W, incubated two hours with chemical substance): 6.8 | The level of expressed mRNA in the presence of chemical substance/The level of expressed mRNA in the absence of chemical substance (yeast gene YOR019W, incubated two hours with chemical substance): 7.1 | The level of expressed mRNA in the presence of chemical substance/The level of expressed mRNA in the absence of chemical substance (yeast gene YOR197W, incubated two hours with chemical substance): 0.7 | The level of expressed mRNA in the presence of chemical substance/The level of expressed mRNA in the absence of chemical substance (yeast gene YOR338W): 3.5 | The level of expressed mRNA in the presence of chemical substance/The level of expressed mRNA in the absence of chemical substance (yeast gene YPL087W, incubated two hours with chemical substance): 2.2 | The level of expressed mRNA in the presence of chemical substance/The level of expressed mRNA in the absence of chemical substance (yeast gene YPL196W, incubated two hours with chemical substance): 2.8 | The level of expressed mRNA in the presence of chemical substance/The level of expressed mRNA in the absence of chemical substance (yeast gene YPL206C, incubated two hours with chemical substance): 1.1 | The level of expressed mRNA in the presence of chemical substance/The level of expressed mRNA in the absence of chemical substance (yeast gene YPL222W, incubated two hours with chemical substance): 3.4 | The level of expressed mRNA in the presence of chemical substance/The level of expressed mRNA in the absence of chemical substance (yeast gene YPR023C, incubated two hours with chemical substance): 2.8 | The level of expressed mRNA in the presence of chemical substance/The level of expressed mRNA in the absence of chemical substance (yeast gene YPR151C, incubated two hours with chemical substance): 9.5
